Source: patent US20050090559A1, “Heterocyclically-substituted pentanol derivatives, process for their production and their use as anti-inflammatory agents” (priority 2003, published 2005)

Target: T1, glucocorticoid receptor (GR) (Homo sapiens, UniProt P04150)
T1 construct: made in house; host or cells: Sf9 cells infected with recombinant baculovirus (cytosol preparation)
T1 sequence (P04150 1-777): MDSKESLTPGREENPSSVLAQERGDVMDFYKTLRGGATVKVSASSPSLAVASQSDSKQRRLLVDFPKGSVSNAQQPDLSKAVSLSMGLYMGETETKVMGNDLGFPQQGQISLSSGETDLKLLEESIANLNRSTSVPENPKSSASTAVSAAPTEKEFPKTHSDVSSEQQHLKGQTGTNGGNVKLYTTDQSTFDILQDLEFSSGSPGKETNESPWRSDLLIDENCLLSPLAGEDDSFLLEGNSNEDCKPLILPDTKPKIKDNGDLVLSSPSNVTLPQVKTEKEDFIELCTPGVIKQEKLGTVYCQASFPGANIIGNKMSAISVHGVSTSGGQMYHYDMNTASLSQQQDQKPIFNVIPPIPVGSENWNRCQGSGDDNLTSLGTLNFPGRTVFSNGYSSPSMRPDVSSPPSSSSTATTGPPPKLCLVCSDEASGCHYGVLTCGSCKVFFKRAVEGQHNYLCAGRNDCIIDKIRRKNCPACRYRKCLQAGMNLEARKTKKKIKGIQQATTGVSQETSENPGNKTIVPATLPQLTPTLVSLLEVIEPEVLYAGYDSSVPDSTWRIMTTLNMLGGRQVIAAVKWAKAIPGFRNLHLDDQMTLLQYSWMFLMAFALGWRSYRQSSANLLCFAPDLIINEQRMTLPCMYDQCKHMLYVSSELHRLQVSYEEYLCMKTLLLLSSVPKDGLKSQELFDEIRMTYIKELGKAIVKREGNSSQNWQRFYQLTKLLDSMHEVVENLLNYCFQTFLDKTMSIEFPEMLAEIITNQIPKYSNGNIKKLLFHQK
Assay: Binding to recombinantly produced glucocorticoid receptor, cytosol preparations of Sf9 cells, vs [3H]-dexamethasone
Conditions: recombinant GR
Description: The binding of the substances to the glucocorticoid receptor (GR) and other steroid hormone receptors (mineral corticoid receptor (MR), progesterone receptor (PR) and androgen receptor (AR)) is examined with the aid of recombinantly produced receptors. Cytosol preparations of Sf9 cells, which had been infected with recombinant baculoviruses, which code for the GR, are used for the binding studies. In comparison to reference substance [^3H]-dexamethasone, the substances show a high to very high affinity to GR.
Moreover, the compounds of formula (I) substituted by quinazolines, quinoxalines, cinnolines, indazoles, phthalazines, naphthyridines, benzothiazoles, dihydroindolones, dihydroisoindolones, benzimidazoles and indoles that are described here show a high selectivity for the glucocorticoid receptor.

SMILES	IC50
COc1ccc(F)cc1C(C)(C)CC(O)(CNc1cccc2nc(C)ncc12)C(F)(F)F (centres unmarked) [Example 2, 4-(5-Fluoro-2-methoxyphenyl)-4-methyl-1-(2-methylquinazolin-5-ylamino)-2-(trifluoromethyl)-pentan-2-ol]	1.8 nM
COc1cc(Cl)ccc1C(C)(C)CC(O)(CNc1ccnc2nc(C)ccc12)C(F)(F)F (centres unmarked) [Example 52, 4-(4-Chloro-2-methoxyphenyl)-4-methyl-1-(2-methyl-1,8-naphthyridin-5-ylamino)-2-(trifluoromethyl)pentan-2-ol]	10 nM
